Values of other authors as cited in patent US20240397950A1, “DISINFECTANT COMPOSITION” (OTSUKA PHARMACEUTICAL FACTORY, INC., priority 2018, published 2024).

Q: Which “pH at which a dilute aqueous solution causes precipitation” value does the source give for `N=C(NCCCCCCNC(=N)NC(=N)Nc1ccc(Cl)cc1)NC(=N)Nc1ccc(Cl)cc1.O=C(O)[C@H](O)[C@@H](O)[C@H](O)[C@H](O)CO.O=C(O)[C@H](O)[C@@H](O)[C@H](O)[C@H](O)CO` [Chlorhexidine gluconate] here?
A: ≥ 8
